Data: patent US10882860B2, “Treatment of osteoarthritis” (Samumed, LLC, priority 2015, dated 2021)
Like-named read-outs stand apart in the source and are kept apart here. Marks after values point to notes of the source that are not given here.

Legend:
Assay type in all cases: physicochemical
[1] = Dynamic vapor sorption (DVS) and exposure to humidity/air of solid forms
Experimental: The hydrate lost its water below 30% RH.
The purity of the Form 13 sample was 98.8%; the KF of an undried Form 13 sample was 35.7%.
Solvates 1 and 2 solids were exposed to air overnight, and then analyzed by XRD. After the analysis, the solids were dried at 50° C. under vacuum, and then analyzed by XRD again.

[2] = Competitive slurry experiments between polymorph forms (thermodynamic stability); conditions: for most stable form in competitive slurry: 15 forms mixed (10 mg each), RT and 50° C., 3-5 days
Experimental: In order to find out the thermodynamic stability between the different forms, several competitive slurry experiments were carried out. Form 1, Form 2, Form 2*, Form 3, Form 4, Form 4*, Form 4**, Form 5, Form 7, Form 8, Form 9, Form 10, Form 11, Form 11*, and Form 13 (10 mg for each) was mixed and slurried in 2 mL of solvent at both RT and 50° C. The solids were slurried for 3-5 days and then analyzed by XRD.
In order to find out the thermodynamic stability between Form 13 and Form 9, several competitive slurry experiments were carried out. 15 mg of Form 1, Form 9 and Form 13 solid were mixed in 1 mL of toluene, IPAc, and n-butyl acetate, and slurried for 3 days at RT and 50° C.
The residual solid was analyzed by XRD.

[3] = Solubility of the starting solid by the gravimetric method; conditions: for solubility: thermodynamic from solid
[4] = Slurry experiments in various solvents (polymorph screen)
Experimental: Slurry experiments in various solvents were performed. Approximately 30-80 mg of the starting solid (a non-stoichiometric hydrate of Form 1 having between 1% and about 20% by weight water) was slurried in 39 different solvents (pure and binary solvents; the ratio of organic solvent/water (V/V) was 95%/5%) at RT and 50° C. for 5 days. Three solvates, […], and eleven non-solvated forms were identified. […] XRD of both wet and dry samples were scanned (FIG. 12A (dry sample)).
The slurry experiments identified 3 solvated forms from wet samples (Solvates 1, 2, and 3); 2 non-stoichiometric hydrates of Form 1 (Forms 12 and 13); and 11 non-solvated forms (Forms 1-11). In some instances, similar XRD scans with minor differences were obtained. These were considered to be part of the same class (e.g., the same form). For example, XRD scans of Form 2 and Form 2* were similar and were considered to belong to the same class. The solvated forms were obtained from wet sample analysis; after drying, the sample indicated a different XRD.

[5] = slurry in DMF/water (5% water), 50° C.
[6] = slurry in DMF/water (5% water), RT
[7] = slurry in DMSO/water (5% water), 50° C.
[8] = slurry in DMSO/water (5% water), RT
[9] = slurry in EtOH/water (5% water), 50° C.
[10] = slurry in n-Butyl acetate, 50° C.
[11] = slurry in n-Propanol/water (5% water), 50° C.

CC(C)CC(=O)Nc1cncc(-c2ccc3[nH]nc(-c4nc5c(-c6cccc(F)c6)cncc5[nH]4)c3c2)c1 [Form 1]
converts to Form 13: form change when exposed to air ([1]; exposed to air)

CC(C)CC(=O)Nc1cncc(-c2ccc3[nH]nc(-c4nc5c(-c6cccc(F)c6)cncc5[nH]4)c3c2)c1 [Form 1, Form 9 and Form 13]
Form 9/Form 9: Form after 3 days; wet/dry ([2]; 50° C., IPAc)
Form 9 + Form 13/Form 9 + Form 1: Form after 3 days; wet/dry ([2]; 50° C., Toluene) | Form after 3 days; wet/dry ([2]; 50° C., n-Butyl acetate) | Form after 3 days; wet/dry ([2]; RT, IPAc) | Form after 3 days; wet/dry ([2]; RT, n-Butyl acetate)
Form 13/Form 1: Form after 3 days; wet/dry ([2]; RT, Toluene)

CC(C)CC(=O)Nc1cncc(-c2ccc3[nH]nc(-c4nc5c(-c6cccc(F)c6)cncc5[nH]4)c3c2)c1 [starting solid]
16000 µg/mL: solubility ([3]; organic solvent or mixture, DMF, 50° C., read-out: Solubility at 50° C.)
5000 µg/mL: solubility ([3]; organic solvent or mixture, IPA, 50° C., read-out: Solubility at 50° C.)
1000 µg/mL: solubility ([3]; organic solvent or mixture, Acetone, 50° C., read-out: Solubility at 50° C.) | solubility ([3]; organic solvent or mixture, Acetone, RT, read-out: Solubility at RT) | solubility ([3]; organic solvent or mixture, EA, 50° C., read-out: Solubility at 50° C.) | solubility ([3]; organic solvent or mixture, EA, RT, read-out: Solubility at RT) | solubility ([3]; organic solvent or mixture, MEK, 50° C., read-out: Solubility at 50° C.) | solubility ([3]; organic solvent or mixture, MEK, RT, read-out: Solubility at RT) | solubility ([3]; organic solvent or mixture, MIBK, 50° C., read-out: Solubility at 50° C.) | solubility ([3]; organic solvent or mixture, MIBK, RT, read-out: Solubility at RT) | solubility ([3]; organic solvent or mixture, MeOH, 50° C., read-out: Solubility at 50° C.) | solubility ([3]; organic solvent or mixture, MeOH, RT, read-out: Solubility at RT) | solubility ([3]; organic solvent or mixture, Toluene, 50° C., read-out: Solubility at 50° C.) | solubility ([3]; organic solvent or mixture, Toluene, RT, read-out: Solubility at RT) | solubility ([3]; organic solvent or mixture, n-Butanol, RT, read-out: Solubility at RT) | solubility ([3]; organic solvent or mixture, n-Propanol, RT, read-out: Solubility at RT) | solubility ([3]; water, 50° C., read-out: Solubility at 50° C.) | solubility ([3]; water, RT, read-out: Solubility at RT)
12000 µg/mL: solubility ([3]; organic solvent or mixture, DMF, RT, read-out: Solubility at RT)
2000 µg/mL: solubility ([3]; organic solvent or mixture, DCM, 50° C., read-out: Solubility at 50° C.) | solubility ([3]; organic solvent or mixture, DCM, RT, read-out: Solubility at RT) | solubility ([3]; organic solvent or mixture, EtOH, 50° C., read-out: Solubility at 50° C.) | solubility ([3]; organic solvent or mixture, EtOH, RT, read-out: Solubility at RT) | solubility ([3]; organic solvent or mixture, IPA, RT, read-out: Solubility at RT) | solubility ([3]; organic solvent or mixture, n-Butanol, 50° C., read-out: Solubility at 50° C.) | solubility ([3]; organic solvent or mixture, n-Propanol, 50° C., read-out: Solubility at 50° C.)
3000 µg/mL: solubility ([3]; organic solvent or mixture, Acetic acid, 50° C., read-out: Solubility at 50° C.)
low solubility: Solubility (gravimetric method) ([3]; RT and 50° C., all solvents tested except DMF and DMSO)

CC(C)CC(=O)Nc1cncc(-c2ccc3[nH]nc(-c4nc5c(-c6cccc(F)c6)cncc5[nH]4)c3c2)c1 [Form 13]
most stable: most stable form in competitive slurry ([2]; water)

CC(C)CC(=O)Nc1cncc(-c2ccc3[nH]nc(-c4nc5c(-c6cccc(F)c6)cncc5[nH]4)c3c2)c1 [Form 11]
Form 11: Wet (solid form by XRD after slurry) ([4]; slurry in DMF, 50° C.) | Dry (solid form by XRD after slurry) ([4]; slurry in DMF, RT) | Wet (solid form by XRD after slurry) ([4]; slurry in DMF, RT) | Dry (solid form by XRD after slurry) [4, 5] | Wet (solid form by XRD after slurry) [4, 5] | Dry (solid form by XRD after slurry) [4, 6] | Wet (solid form by XRD after slurry) [4, 6]
Form 11*: Dry (solid form by XRD after slurry) ([4]; slurry in DMF, 50° C.)

CC(C)CC(=O)Nc1cncc(-c2ccc3[nH]nc(-c4nc5c(-c6cccc(F)c6)cncc5[nH]4)c3c2)c1 [Solvate 1]
converted to low crystallinity: form change after exposure to air overnight (XRD) [1]

CC(C)CC(=O)Nc1cncc(-c2ccc3[nH]nc(-c4nc5c(-c6cccc(F)c6)cncc5[nH]4)c3c2)c1 [Form 10]
Form 10*: Dry (solid form by XRD after slurry) ([4]; slurry in DMSO, 50° C.)
amorphous: Wet (solid form by XRD after slurry) ([4]; slurry in DMSO, 50° C.) | Wet (solid form by XRD after slurry) ([4]; slurry in DMSO, RT) | Wet (solid form by XRD after slurry) [4, 7] | Wet (solid form by XRD after slurry) [4, 8]
Form 10: Dry (solid form by XRD after slurry) ([4]; slurry in DMSO, RT) | Dry (solid form by XRD after slurry) [4, 7] | Dry (solid form by XRD after slurry) [4, 8]

CC(C)CC(=O)Nc1cncc(-c2ccc3[nH]nc(-c4nc5c(-c6cccc(F)c6)cncc5[nH]4)c3c2)c1 [Form 9]
did not change its form: change of form before and after the DVS scan ([1]; XRD before/after DVS)
Form 9: Dry (solid form by XRD after slurry) [4, 9] | Wet (solid form by XRD after slurry) [4, 9] | Dry (solid form by XRD after slurry) ([4]; slurry in IPAc, 50° C.) | Wet (solid form by XRD after slurry) ([4]; slurry in IPAc, 50° C.) | Dry (solid form by XRD after slurry) ([4]; slurry in n-Butanol, 50° C.) | Wet (solid form by XRD after slurry) ([4]; slurry in n-Butanol, 50° C.) | Dry (solid form by XRD after slurry) ([4]; slurry in n-Butanol, RT) | Wet (solid form by XRD after slurry) ([4]; slurry in n-Butanol, RT) | Dry (solid form by XRD after slurry) [4, 10] | Wet (solid form by XRD after slurry) [4, 10] | Dry (solid form by XRD after slurry) [4, 11] | Wet (solid form by XRD after slurry) [4, 11]

CC(C)CC(=O)Nc1cncc(-c2ccc3[nH]nc(-c4nc5c(-c6cccc(F)c6)cncc5[nH]4)c3c2)c1 [Form 4]
most stable: most stable form in competitive slurry ([2]; EA)

CC(C)CC(=O)Nc1cncc(-c2ccc3[nH]nc(-c4nc5c(-c6cccc(F)c6)cncc5[nH]4)c3c2)c1 [Solvate 2]
changed a little: form change after exposure to air overnight (XRD) [1]
